{
  "source": "patent US20230085307A1",
  "about": "“PYRIDAZINONE COMPOUND AND HERBICIDE” (NISSAN CHEMICAL CORPORATION, priority 2019, published 2023)",
  "key": {"barnyard grass [1]": {"system": "barnyard grass", "assay": "Test Example 5: herbicidal effect by foliage application, plastic box (Table 20, symbol H)", "type": "in vivo, barnyard grass (Echinochloa crus-galli)", "method_in_brief": "(§1)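 Plants were sown into sterilized diluvial soil under about 1.5 cm cover and kept in a greenhouse at 25° C. to 30° C. Fourteen days on, foliage received an even spray of the diluted emulsion. Herbicidal or crop effect was judged three weeks afterwards.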"}, "blackgrass": {"system": "blackgrass", "assay": "Test Example 5: herbicidal effect by foliage application, plastic box (Table 20, symbol J)", "type": "in vivo, blackgrass (Alopecurus myosuroides)", "settings": "amount of applied herbicide 320 g/ha; foliage application after 14-day growth; evaluated three weeks after application", "method_in_brief": "as §1"}, "Italian ryegrass": {"system": "Italian ryegrass", "assay": "Test Example 5: herbicidal effect by foliage application, plastic box (Table 20, symbol K)", "type": "in vivo, Italian ryegrass (Lolium multiflorum)", "settings": "amount of applied herbicide 320 g/ha; foliage application after 14-day growth; evaluated three weeks after application", "method_in_brief": "as §1"}, "velvetleaf [2]": {"system": "velvetleaf", "assay": "Test Example 5: herbicidal effect by foliage application, plastic box (Table 20, symbol M)", "type": "in vivo, velvetleaf (Abutilon theophrasti)", "method_in_brief": "as §1"}, "southern crabgrass [3]": {"system": "southern crabgrass", "assay": "Test Example 5: herbicidal effect by foliage application, plastic box (Table 20, symbol F)", "type": "in vivo, southern crabgrass (Digitaria ciliaris)", "method_in_brief": "as §1"}, "redroot pigweed [4]": {"system": "redroot pigweed", "assay": "Test Example 5: herbicidal effect by foliage application, plastic box (Table 20, symbol N)", "type": "in vivo, redroot pigweed (Amaranthus retroflexus)", "text": "[Test Example 5] Herbicidal Effect Test by Foliage Application\n(§2) Sterilized diluvial soil was placed in a plastic box having a length of 21 cm, a width of 13 cm, and a depth of 7 cm. The seeds of each of southern crabgrass, green foxtail, barnyard grass, wild oat, blackgrass, Italian ryegrass, windgrass, velvetleaf, redroot pigweed, lambsquarters, chickweed, false cleavers, persian speedwell, corn, soybean, rice, wheat, beet, and rapeseed were sowed in a spot-like manner and covered with the soil having a thickness of about 1.5 cm. Thereafter, the plants were grown in a greenhouse at 25° C. to 30° C. After 14-day growth of the plants, the emulsion agent of the compound of the present invention prepared according to Formulation Example 2 was diluted with water so as to achieve a predetermined herbicide amount, and the diluted emulsion agent was uniformly applied to a foliage part with a small-sized spray. Three weeks after the herbicide application, the effect of the herbicide on each plant was evaluated according to the criteria of Test Example 1."}, "wild oat": {"system": "wild oat", "assay": "Test Example 5: herbicidal effect by foliage application, plastic box (Table 20, symbol I)", "type": "in vivo, wild oat (Avena fatua)", "settings": "amount of applied herbicide 320 g/ha; foliage application after 14-day growth; evaluated three weeks after application", "method_in_brief": "as §1"}, "Chinese sprangletop": {"system": "Chinese sprangletop", "assay": "Test Example 3: herbicidal effect by foliage application, Wagner pot (Table 18, symbol D)", "type": "in vivo, chinese sprangletop (Leptochloa chinensis)", "method_in_brief": "(§3)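 Plants were sown in alluvial soil held under 0.1–0.5 cm standing water and grown 14 days in a greenhouse at 25–30 °C. An emulsifiable formulation, water-diluted to the set dose, was then sprayed onto the foliage, and effects were scored three weeks later using previously defined criteria.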"}, "windgrass": {"system": "windgrass", "assay": "Test Example 5: herbicidal effect by foliage application, plastic box (Table 20, symbol L)", "type": "in vivo, windgrass (Apera spica-venti)", "settings": "amount of applied herbicide 320 g/ha; foliage application after 14-day growth; evaluated three weeks after application", "method_in_brief": "as §1"}, "lambsquarters [5]": {"system": "lambsquarters", "assay": "Test Example 5: herbicidal effect by foliage application, plastic box (Table 20, symbol O)", "type": "in vivo, lambsquarters (Chenopodium album)", "method_in_brief": "as §1"}, "green foxtail [6]": {"system": "green foxtail", "assay": "Test Example 5: herbicidal effect by foliage application, plastic box (Table 20, symbol G)", "type": "in vivo, green foxtail (Setaria viridis)", "method_in_brief": "as §1"}, "rice flat sedge": {"system": "rice flat sedge", "assay": "Test Example 3: herbicidal effect by foliage application, Wagner pot (Table 18, symbol E)", "type": "in vivo, rice flat sedge (Cyperus iria)", "method_in_brief": "as §3"}, "persian speedwell": {"system": "persian speedwell", "assay": "Test Example 5: herbicidal effect by foliage application, plastic box (Table 20, symbol R)", "type": "in vivo, Persian speedwell (Veronica persica)", "settings": "amount of applied herbicide 320 g/ha; foliage application after 14-day growth; evaluated three weeks after application", "method_in_brief": "as §1"}, "barnyard grass [7]": {"system": "barnyard grass", "assay": "Test Example 3: herbicidal effect by foliage application, Wagner pot (Table 18, symbol H)", "type": "in vivo, barnyard grass (Echinochloa crus-galli)", "method_in_brief": "as §3"}, "lambsquarters [8]": {"system": "lambsquarters", "assay": "Test Example 4: herbicidal effect by soil treatment (Table 19, symbol O)", "type": "in vivo, lambsquarters (Chenopodium album)", "settings": "amount of applied herbicide 320 g/ha", "text": "(§4) [Test Example 4] Herbicidal Effect Test by Soil Treatment\nas §2, with “Subsequently,” for “Thereafter, the plants were grown in a greenhouse at 25° C. to 30° C. After 14-day growth of the plants,”, “the surface of the soil” for “a foliage part”, “spray. The plastic box was placed in a greenhouse at 25° C. to 30° C. for growth of the plants.” for “spray.”"}, "velvetleaf [9]": {"system": "velvetleaf", "assay": "Test Example 4: herbicidal effect by soil treatment (Table 19, symbol M)", "type": "in vivo, velvetleaf (Abutilon theophrasti)", "settings": "amount of applied herbicide 320 g/ha", "text": "as §4\nas §2, with “Subsequently,” for “Thereafter, the plants were grown in a greenhouse at 25° C. to 30° C. After 14-day growth of the plants,”, “the surface of the soil” for “a foliage part”, “spray. The plastic box was placed in a greenhouse at 25° C. to 30° C. for growth of the plants.” for “spray.”"}, "southern crabgrass [10]": {"system": "southern crabgrass", "assay": "Test Example 4: herbicidal effect by soil treatment (Table 19, symbol F)", "type": "in vivo, southern crabgrass (Digitaria ciliaris)", "settings": "amount of applied herbicide 320 g/ha", "text": "as §4\nas §2, with “Subsequently,” for “Thereafter, the plants were grown in a greenhouse at 25° C. to 30° C. After 14-day growth of the plants,”, “the surface of the soil” for “a foliage part”, “spray. The plastic box was placed in a greenhouse at 25° C. to 30° C. for growth of the plants.” for “spray.”"}, "redroot pigweed [11]": {"system": "redroot pigweed", "assay": "Test Example 4: herbicidal effect by soil treatment (Table 19, symbol N)", "type": "in vivo, redroot pigweed (Amaranthus retroflexus)", "settings": "amount of applied herbicide 320 g/ha", "text": "as §4\nas §2, with “Subsequently,” for “Thereafter, the plants were grown in a greenhouse at 25° C. to 30° C. After 14-day growth of the plants,”, “the surface of the soil” for “a foliage part”, “spray. The plastic box was placed in a greenhouse at 25° C. to 30° C. for growth of the plants.” for “spray.”"}, "green foxtail [12]": {"system": "green foxtail", "assay": "Test Example 4: herbicidal effect by soil treatment (Table 19, symbol G)", "type": "in vivo, green foxtail (Setaria viridis)", "settings": "amount of applied herbicide 320 g/ha", "text": "as §4\nas §2, with “Subsequently,” for “Thereafter, the plants were grown in a greenhouse at 25° C. to 30° C. After 14-day growth of the plants,”, “the surface of the soil” for “a foliage part”, “spray. The plastic box was placed in a greenhouse at 25° C. to 30° C. for growth of the plants.” for “spray.”"}, "barnyard grass [13]": {"system": "barnyard grass", "assay": "Test Example 4: herbicidal effect by soil treatment (Table 19, symbol H)", "type": "in vivo, barnyard grass (Echinochloa crus-galli)", "settings": "amount of applied herbicide 320 g/ha", "text": "as §4\nas §2, with “Subsequently,” for “Thereafter, the plants were grown in a greenhouse at 25° C. to 30° C. After 14-day growth of the plants,”, “the surface of the soil” for “a foliage part”, “spray. The plastic box was placed in a greenhouse at 25° C. to 30° C. for growth of the plants.” for “spray.”"}, "[14]": {"settings": "amount of applied herbicide 320 g/ha, foliage application after 14-day growth, evaluated three weeks after application"}, "[15]": {"settings": "foliage application, 320 g/ha, three weeks after application"}, "[16]": {"settings": "amount of applied herbicide 320 g/ha"}},
  "data": [
    {"smiles": "COCc1ccccc1-c1sc2c(Cl)cccc2c1-c1c(O)c(C)nn(C)c1=O", "note": "[4-081]", "values": [
      {"measurement": "Herbicidal effect by foliage application, H: barnyard grass", "setting": "barnyard grass [1]; [14]", "result": "3 (Herbicidal rate of 40% or more and less than 70%)"},
      {"measurement": "Herbicidal effect by foliage application, J: blackgrass", "setting": "blackgrass", "result": "0 (Herbicidal rate of 5% or less (almost no effect))"},
      {"measurement": "Herbicidal effect by foliage application, K: Italian ryegrass", "setting": "Italian ryegrass", "result": "0 (Herbicidal rate of 5% or less (almost no effect))"},
      {"measurement": "Herbicidal effect by foliage application, M: velvetleaf", "setting": "velvetleaf [2]; [14]", "result": "3 (Herbicidal rate of 40% or more and less than 70%)"},
      {"measurement": "Herbicidal effect by foliage application, F: southern crabgrass", "setting": "southern crabgrass [3]; [14]", "result": "0 (Herbicidal rate of 5% or less (almost no effect))"},
      {"measurement": "Herbicidal effect by foliage application, N: redroot pigweed", "setting": "redroot pigweed [4]; [14]", "result": "1 (Herbicidal rate of 5% or more and less than 20%)"},
      {"measurement": "Herbicidal effect by foliage application, I: wild oat", "setting": "wild oat", "result": "0 (Herbicidal rate of 5% or less (almost no effect))"},
      {"measurement": "herbicidal effect on Chinese sprangletop (D)", "setting": "Chinese sprangletop; 320 g/ha", "result": "0 (Herbicidal rate of 5% or less (almost no effect))"},
      {"measurement": "Herbicidal effect by foliage application, L: windgrass", "setting": "windgrass", "result": "0 (Herbicidal rate of 5% or less (almost no effect))"},
      {"measurement": "Herbicidal effect by foliage application, O: lambsquarters", "setting": "lambsquarters [5]; [14]", "result": "1 (Herbicidal rate of 5% or more and less than 20%)"},
      {"measurement": "Herbicidal effect by foliage application, G: green foxtail", "setting": "green foxtail [6]; [14]", "result": "3 (Herbicidal rate of 40% or more and less than 70%)"},
      {"measurement": "herbicidal effect on rice flat sedge (E)", "setting": "rice flat sedge; 320 g/ha", "result": "0 (Herbicidal rate of 5% or less (almost no effect))"},
      {"measurement": "Herbicidal effect by foliage application, R: persian speedwell", "setting": "persian speedwell", "result": "1 (Herbicidal rate of 5% or more and less than 20%)"},
      {"measurement": "herbicidal effect on barnyard grass (H)", "setting": "barnyard grass [7]; 320 g/ha", "result": "3 (Herbicidal rate of 40% or more and less than 70%)"}
    ]},
    {"smiles": "Cc1nn(C)c(=O)c(-c2c(-c3ccc(OC(F)(F)F)cc3)sc3ccc(Cl)cc23)c1O", "note": "[2-457]", "values": [
      {"measurement": "H: barnyard grass, herbicidal effect grade", "setting": "barnyard grass [1]; [15]", "result": "5 (Herbicidal rate of 90% or more (almost completely withered))"},
      {"measurement": "herbicidal effect, O: lambsquarters", "setting": "lambsquarters [8]", "result": "2 (Herbicidal rate of 20% or more and less than 40%)"},
      {"measurement": "herbicidal effect, M: velvetleaf", "setting": "velvetleaf [9]", "result": "1 (Herbicidal rate of 5% or more and less than 20%)"},
      {"measurement": "M: velvetleaf, herbicidal effect grade", "setting": "velvetleaf [2]; [15]", "result": "3 (Herbicidal rate of 40% or more and less than 70%)"},
      {"measurement": "herbicidal effect, F: southern crabgrass", "setting": "southern crabgrass [10]", "result": "0 (Herbicidal rate of 5% or less (almost no effect))"},
      {"measurement": "F: southern crabgrass, herbicidal effect grade", "setting": "southern crabgrass [3]; [15]", "result": "3 (Herbicidal rate of 40% or more and less than 70%)"},
      {"measurement": "N: redroot pigweed, herbicidal effect grade", "setting": "redroot pigweed [4]; [15]", "result": "4 (Herbicidal rate of 70% or more and less than 90%)"},
      {"measurement": "herbicidal effect on D: Chinese sprangletop", "setting": "Chinese sprangletop; [16]", "result": "3 (Herbicidal rate of 40% or more and less than 70%)"},
      {"measurement": "herbicidal effect, N: redroot pigweed", "setting": "redroot pigweed [11]", "result": "3 (Herbicidal rate of 40% or more and less than 70%)"},
      {"measurement": "O: lambsquarters, herbicidal effect grade", "setting": "lambsquarters [5]; [15]", "result": "5 (Herbicidal rate of 90% or more (almost completely withered))"},
      {"measurement": "G: green foxtail, herbicidal effect grade", "setting": "green foxtail [6]; [15]", "result": "3 (Herbicidal rate of 40% or more and less than 70%)"},
      {"measurement": "herbicidal effect, G: green foxtail", "setting": "green foxtail [12]", "result": "0 (Herbicidal rate of 5% or less (almost no effect))"},
      {"measurement": "herbicidal effect on E: rice flat sedge", "setting": "rice flat sedge; [16]", "result": "5 (Herbicidal rate of 90% or more (almost completely withered))"},
      {"measurement": "herbicidal effect, H: barnyard grass", "setting": "barnyard grass [13]", "result": "0 (Herbicidal rate of 5% or less (almost no effect))"},
      {"measurement": "herbicidal effect on H: barnyard grass", "setting": "barnyard grass [7]; [16]", "result": "5 (Herbicidal rate of 90% or more (almost completely withered))"}
    ]}
  ]
}
